The values below come from patent US20060233893A1, “Aqueous solutions for the reduction of fatty tissue” (priority 2004, published 2006).

The subject of this assay is fatty tissue. The assay is described as follows: administration of solutions to fatty tissue in aesthetic treatment of cellulite by lipotomy. It is filed as in vivo. Particulars: added to solution of approximately from 20 to 90 mOsm/l.

On to `O=C(O)Cc1cc(I)c(Oc2ccc(O)c(I)c2)c(I)c1` [tiratricol, triiodothyroacetic acid], for which the “efficacy of a highly hypotonic lipotomy solution in the destruction of fatty tissue” value is on record as “increased the efficacy”. For phosphatidylcholine the value was “increased the efficacy”.
